Measurements: US20160331708A1 (priority 2014, published 2016)
≈ marks a conversion by molar mass, not a printed value. Where “and” joins values, the source holds several entries; their conditions need not be identical. Identical values can stand only once. Counter-ions that a name gives are not always drawn. Like-named read-outs stand apart in the source and are kept apart here. Numbered stars: 1 amine (or outer) side, 2 acyl side, 3 side chain; on linkers, the order of the positions; unused ones are H or OH. Bridge positions count the residues as written; N and C are the ends. Square brackets hold non-standard residues; d marks the D form. Peptide text beside a SMILES is read from it. I, II: the chains in the order shown. Actinocin(9to1) = Cc1c2oc3c(C)ccc(C(=O)[*:1])c3nc-2c(C(=O)[*:2])c(N)c1=O; NMeV = CN[C@H](C(=O)O)C(C)C; Sar = CNCC(=O)O

What was measured:
Bacillus subtilis 168 = assay: Antibiotic MIC tests in microtiter plates; details: for MIC with anthranilic acid (2.2 mM): antibiotic against B. subtilis in the presence of anthranilic acid (2.2 mM); for Effect: effect of anthranilic acid (2.2 mM) on MIC of the antibiotic against B. subtilis; for effect on the MIC of streptomycin: related compounds tested for synergistic effect with streptomycin (text, Table 4 title); for effect on MIC value when combined with anthranilic acid: anthranilic acid at around 2 mM, B. subtilis
Legionella pneumophila = details: Sasaki et al., 2012; cited from earlier work
Streptomyces MBT3 = assay: TLC biogram / agar overlay antimicrobial assay of EtOAc extracts of Streptomyces MBT3 cultures treated with plant hormones; assay type: cell-based, Streptomyces sp MBT3 (indicator strain B. subtilis); details: methyl-jasmonate 100 μM or salicylic acid 250 μM added to 7 day cultures, 24 hours; B. subtilis indicator
Method: All media for growth of Streptomyces are described in (Kieser et al., 2000). For the preparation of Streptomyces cultures, spores were obtained from SFM agar plates and inoculated at a density of 5×10^6 into 20 ml liquid minimal media with mannitol and glycerol as the carbon sources culture media in a 250 ml Erlenmeyer flask and incubated at 30° C. in a rotary shaker (250 rpm). Mycelia were precipitated by centrifugation for 10 minutes at 12,000 g. Each replicate of culture supernatant was extracted twice with an equal amount (40 ml in total) of analytically pure EtOAc (Sigma-Aldrich St. Louis, Mo., USA). Two grams of Na2SO4 was then added into the organic phase to remove remaining water and was evaporated under vacuum at 38° C. Samples were then re-dissolved in Methanol-d4 (99.8%) (Cambridge Isotope Laboratories, Inc., Andover, Mass., USA) for NMR analysis. 1.5 ml of the culture was collected every three hours and centrifuged. […]
Actinomycetes are very abundantly present in the plant rhizosphere. […] The ethyl acetate extract of the culture fluid of MBT3 was analyzed further for metabolic profile and antimicrobial activity against Bacillus subtilis.
Antimicrobial activity of the extracts was analyzed using thin layer chromatography (TLC) biograms. […]

[1] = Bacillus subtilis, 168, compound alone (Table 4)
[2] = Bacillus subtilis, 168, antibiotic alone against B. subtilis (Table 2)
[3] = Bacillus subtilis, 168, antibiotic alone against B. subtilis (Table 3)
[4] = antibiotic alone against B. subtilis (Table 2)
[5] = antibiotic alone against B. subtilis (Table 3)

In the case of `O=C(O)[C@@H]1CCCN1` [L-Proline], the MIC (Bacillus subtilis 168; [1]) is reported as > 1500 µg/mL.

With `O=C(N[C@H](CO)[C@H](O)c1ccc([N+](=O)[O-])cc1)C(Cl)Cl` [Chloramphenicol] the MIC (Bacillus subtilis 168; [2]) was 125 µg/mL (≈ 387 µM), the MIC (Bacillus subtilis 168; [3]) was 125 µg/mL (≈ 387 µM) and the “MIC with anthranilic acid (2.2 mM)” value (Bacillus subtilis 168) was 125 µg/mL. The Effect (Bacillus subtilis 168) was “No effect”.

Work on `Nc1cccc(C(=O)O)c1` [3-aminobenzoic acid] yielded an MIC (Bacillus subtilis 168; [1]) of 750 µg/mL (≈ 5470 µM).

In the case of `Oc1ccccc1O` [Catechol], the MIC (Bacillus subtilis 168; [1]) is reported as 750 µg/mL (≈ 6810 µM) and the “effect on the MIC of streptomycin” value (Bacillus subtilis 168) is reported as “duplication of the MIC value”.

With `Cc1c2oc3c(C)ccc(C(=O)N[C@@H]4C(=O)N[C@H](C(C)C)C(=O)N5CCC[C@H]5C(=O)N(C)CC(=O)N(C)[C@@H](C(C)C)C(=O)O[C@@H]4C)c3nc-2c(C(=O)N[C@@H]2C(=O)N[C@H](C(C)C)C(=O)N3CCC[C@H]3C(=O)N(C)CC(=O)N(C)[C@@H](C(C)C)C(=O)O[C@@H]2C)c(N)c1=O` [Actinomycin D] (I: T[dV]P[Sar][NMeV] / II: T[dV]P[Sar][NMeV]; ester I:1-I:C, II:1-II:C; linker I:N-II:N via Actinocin(9to1)) the “MIC with anthranilic acid (2.2 mM)” value (Bacillus subtilis 168) was 0.156 µg/mL, the MIC (Bacillus subtilis 168; [4]) was 0.156 µg/mL (≈ 0.124 µM) and the MIC (Bacillus subtilis 168; [5]) was 0.156 µg/mL (≈ 0.124 µM). The Effect (Bacillus subtilis 168) was “No effect”.

With `NC[C@H]1O[C@H](O[C@H]2[C@H](O)[C@@H](O[C@H]3O[C@H](CO)[C@@H](O)[C@H](N)[C@H]3O)[C@H](N)C[C@@H]2N)[C@H](O)[C@@H](O)[C@@H]1O` [Kanamycin (sulfate), Kanamycin] the MIC (Bacillus subtilis 168; [2]) was 125 µg/mL, the MIC (Bacillus subtilis 168; [3]) was 125 µg/mL and the “MIC with anthranilic acid (2.2 mM)” value (Bacillus subtilis 168) was 31.2 µg/mL.

Work on `CC[C@H]1OC(=O)[C@H](C)[C@@H](O[C@H]2C[C@@](C)(OC)[C@@H](O)[C@H](C)O2)[C@H](C)[C@@H](O[C@@H]2O[C@H](C)C[C@H](N(C)C)[C@H]2O)[C@](C)(O)C[C@@H](C)C(=O)[C@H](C)[C@@H](O)[C@]1(C)O` [Erythromycin] yielded an MIC (Bacillus subtilis 168; [2]) of 0.122 µg/mL (≈ 0.166 µM).

For `O=C(O)c1cccc(O)c1O` [2,3-dihydroxybenzoic acid], the MIC (Bacillus subtilis 168; [1]) was 750 µg/mL (≈ 4870 µM) and the “effect on the MIC of streptomycin” value (Bacillus subtilis 168) was “duplication of the MIC value”.

In the case of `CC1(C)S[C@@H]2[C@H](NC(=O)Cc3ccccc3)C(=O)N2[C@H]1C(=O)[O-].[Na+]` [Penicillin G (sodium salt), Penicillin G], the “effect on MIC value when combined with anthranilic acid” value (Bacillus subtilis 168) is reported as “decreased”, the “MIC with anthranilic acid (2.2 mM)” value (Bacillus subtilis 168) is reported as 0.0031 µg/mL and the MIC (Bacillus subtilis 168; [4]) is reported as 0.0062 µg/mL. The MIC (Bacillus subtilis 168; [5]) was 0.0062 µg/mL and the Effect (Bacillus subtilis 168) was “Lower MIC”.

In the case of `Nc1ccccc1C(=O)O` [anthranilic acid], the growth inhibitory effect (Legionella pneumophila) is listed as “mild growth inhibitory effect” and the “activity against B. subtilis” value (Bacillus subtilis 168; compound itself, at concentrations below 5 mg/ml) is listed as “did not show any activity”.

In the case of `[H]/N=C(/N)N[C@H]1[C@H](O)[C@@H](O)[C@H](O[C@@H]2O[C@@H](C)[C@](O)(C=O)[C@H]2O[C@@H]2O[C@@H](CO)[C@H](O)[C@@H](O)[C@@H]2NC)[C@@H](N/C(N)=N\[H])[C@@H]1O` [Streptomycin (sulfate), Streptomycin], the MIC of streptomycin (Bacillus subtilis 168; 75 μg/μl anthranilate) is reported as 15000 µg/mL, the “reduction of MIC of streptomycin” value (Bacillus subtilis 168; 75 μg/μl anthranilate) is reported as 50% and the MIC (Bacillus subtilis 168; [2]) is reported as 31.2 µg/mL. For the same molecule, the MIC (Bacillus subtilis 168; [3]) was 31.2 µg/mL, the MIC (Bacillus subtilis 168; [1]) was 31.2 µg/mL and the MIC (Bacillus subtilis 168; Bacillus subtilis, 168, read-out: MIC value of streptomycin, Bacillus subtilis, no anthranilic acid (FIG. 3)) was 31.2 µg/mL. The MIC (Bacillus subtilis 168; Bacillus subtilis, 168, read-out: MIC value of streptomycin, at 300 μg/ml anthranilic acid (FIG. 3)) was 5 µg/mL, the “MIC value of streptomycin” value (Bacillus subtilis 168; Bacillus subtilis, no anthranilic acid (FIG. 3)) was 30 µg/mL and 31.25 ± 0.05 µg/mL and the “reduction in the MIC of streptomycin” value (Bacillus subtilis 168; anthranilate at concentrations of 300 μg/μl and higher) was “six-fold”. For the same molecule, the “MIC value of Streptomycin reduced by a factor” value (Bacillus subtilis 168; anthranilic acid about 50 μg/ml in the culture) was 2, the “MIC value of Streptomycin reduced by a factor” value (Bacillus subtilis 168; anthranilic acid about 150 μg/ml in the culture) was 3 and the “MIC value of Streptomycin reduced by a factor” value (Bacillus subtilis 168; anthranilic acid about 300 μg/ml in the culture) was 6. The “effect on MIC value when combined with anthranilic acid” value (Bacillus subtilis 168) was “decreased”, the “MIC with anthranilic acid (2.2 mM)” value (Bacillus subtilis 168) was 5 µg/mL and the “decrease of streptomycin MIC (times)” value (Bacillus subtilis 168; combined with anthranilic acid, concentration dependent) was “up to 6 times”. The Effect (Bacillus subtilis 168) was “Lower MIC”.

In the case of `NC(=O)c1ccccc1N` [Anthranilic acid amide], the MIC (Bacillus subtilis 168; [1]) is reported as > 1500 µg/mL.

In the case of `O=C1O[C@H]([C@@H](O)CO)C(O)=C1O` [L-Ascorbic acid (sodium salt), L-Ascorbic acid], the MIC (Bacillus subtilis 168; [1]) is reported as > 750 µg/mL.

With `CC/C=C\CC1C(=O)CCC1CC(=O)OC` (stereo not drawn) [methyl jasmonate] the “effect on antimicrobial activity (bioactivity) of MBT3” value (Streptomyces MBT3) was “strongly enhanced”.

For `CN[C@@H]1[C@@H](O[C@H]2O[C@H](CO)[C@@H](N)[C@H](O)[C@H]2O)OC2C[C@@H](N)[C@@H](O[C@H]3[C@H](O)[C@@H](O)[C@H](N)C[C@@H]3N)OC2[C@@H]1O` (stereo partly drawn) [Apramycin (sulfate), Apramycin], the MIC (Bacillus subtilis 168; [2]) was 1.95 µg/mL, the MIC (Bacillus subtilis 168; [3]) was 1.95 µg/mL and the “MIC with anthranilic acid (2.2 mM)” value (Bacillus subtilis 168) was 1.953 µg/mL. For the same molecule, the Effect (Bacillus subtilis 168) was “No effect”.
